Experimental data from patent US5162304A, “Pharmaceutical compositions and methods for treatment and prophylaxis of cancer” (priority 1990, dated 1992).

Key:
Ehrlich's ascites cells = assay: Test 6 and Comparing Test 2: uptake of bleomycin into Ehrlich's ascites cells; format: cell-based, mouse; settings: bleomycin alone
[1] = tested on: Ehrlich's mouse ascites carcinoma cells; assay: Tests 4, 5 and Comparing Test 1: cytocidal activity of bleomycin alone or with isomonool, Ehrlich's cells; format: cell-based
Protocol: (§1) The cytocidal activity (IC90) of bleomycin was evaluated when used alone or used in combination with 14-methyl-1-pentadecanol or 14-methyl-1-hexadecanol, using Ehrlich's mouse ascites carcinoma cells and human lung tumor A549 cells.

[2] = tested on: Ehrlich's mouse ascites carcinoma cells; assay: Test 7 and Comparing Tests 3 and 4: survival of mice inoculated with Ehrlich's mouse ascites carcinoma cells; format: in vivo, male C57BL/6 mice; settings: bleomycin alone; for Number of surviving mice: of 8
Protocol: 5-week old male C57BL/6 mice were intraperitoneally inoculated with 10^6 Ehrlich's mouse ascites carcinoma cells. Since 24 hours later, a 50 μg/ml solution of bleomycin in 0.25% HCO-60 solution in physiological saline, and a suspension containing 50 μg/ml of bleomycin and 5 μg/ml of 14-methyl-1-pentadecanol were intraperitoneally injected at a dose of 10 mg/kg·day and 11 mg/kg·day, respectively, to each 8 animals/group for 5 days. The survival time of the injected mice was then followed.

[3] = tested on: human lung carcinoma A549 cells; assay: Tests 4, 5 and Comparing Test 1: cytocidal activity of bleomycin alone or with isomonool, A549 cells; format: cell-based
Protocol: as §1

Substance bleomycin [reference compound] has a Bleomycin uptake (Ehrlich's ascites cells; 30 min) of 0.03 μg/mg Ehrlich's cell, a Bleomycin uptake (Ehrlich's ascites cells; 60 min) of 0.06 μg/mg Ehrlich's cell and a Bleomycin uptake (Ehrlich's ascites cells; 120 min) of 0.12 μg/mg Ehrlich's cell. The Bleomycin uptake (Ehrlich's ascites cells; 180 min) was 0.13 μg/mg Ehrlich's cell, the Bleomycin uptake (Ehrlich's ascites cells; Initial) was 0 μg/mg Ehrlich's cell and the “Cytocidal activity (IC90) of bleomycin alone” value [1] was 20 µg/mL. The “mean survival time after inoculation” value ([2]; i.p., 10 mg/kg.day for 5 days (Comparing test 3)) was 33.3 days, the “Number of surviving mice” value ([2]; day 14) was 7 and the “Number of surviving mice” value ([2]; day 15) was 6. For the same substance, the “Number of surviving mice” value ([2]; day 16) was 6, the “Number of surviving mice” value ([2]; day 17) was 6 and the “Number of surviving mice” value ([2]; day 18) was 6. For the same substance, the “Number of surviving mice” value ([2]; day 19) was 6, the “Number of surviving mice” value ([2]; day 20) was 6 and the “Number of surviving mice” value ([2]; day 23) was 4. The “Number of surviving mice” value ([2]; day 33) was 3, the “Number of surviving mice” value ([2]; day 41) was 2 and the “Number of surviving mice” value ([2]; day 45) was 2. The “Number of surviving mice” value ([2]; day 52) was 2, the “Number of surviving mice” value ([2]; day 57) was 1 and the “Number of surviving mice” value ([2]; day 60) was 1. The “Cytocidal activity (IC90) of bleomycin alone” value [3] was 44 µg/mL.
